Test results published in ChEMBL document CHEMBL3769335, “Non-symmetrical furan-amidines as novel leads for the treatment of cancer and malaria” (Eur J Med Chem, 2016).
Activity calls are given as the source filed them. No cut-off for these calls is given here.

What was measured:
MDA-MB-468 [1] = assay: Cytotoxicity against human MDA-MB-468 cells after 96 hrs by MTT assay; type: functional, cell-based; settings: MDA-MB-468, 96 h
T47D [2] = assay: Cytotoxicity against human T47D cells after 96 hrs by MTT assay; type: functional, cell-based
[3] = molecular target: T1, Ribosyldihydronicotinamide dehydrogenase [quinone] (Homo sapiens, UniProt P16083); assay: Inhibition of human recombinant NQO2 using DCPIPas substrate and NRH as cofactor measured for 1 min by spectrophotometry in the absence of BSA
T1 sequence (P16083 whole entry): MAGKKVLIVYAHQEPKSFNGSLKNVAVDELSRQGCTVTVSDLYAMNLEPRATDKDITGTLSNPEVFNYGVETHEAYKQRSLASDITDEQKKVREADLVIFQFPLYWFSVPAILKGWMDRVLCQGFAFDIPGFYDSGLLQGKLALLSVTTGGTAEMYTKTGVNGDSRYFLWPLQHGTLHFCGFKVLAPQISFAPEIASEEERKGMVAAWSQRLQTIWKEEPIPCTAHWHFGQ

MCF7 [4] = assay: Cytotoxicity against human MCF7 cells after 96 hrs by MTT assay; type: functional, cell-based; settings: MCF7, 96 h
MDA-MB-231 [5] = assay: Cytotoxicity against human MDA-MB-231 cells after 96 hrs by MTT assay; type: functional, cell-based; settings: MDA-MB-231, 96 h
[6] = molecular target: T1, Ribosyldihydronicotinamide dehydrogenase [quinone]; assay: Inhibition of human recombinant NQO2 using DCPIPas substrate and NRH as cofactor measured for 1 min by spectrophotometry in the prsence of BSA
Calf thymus DNA = settings: Bos taurus
Description: Binding affinity to calf thymus DNA assessed as change in melting temperature by UV-visible spectrophometry

Plasmodium falciparum = assay: Antimalarial activity against Plasmodium falciparum 3D7 infected in erythrocyte assessed as growth inhibition after 4 days by flow cytometry; type: functional, organism-based; settings: 3D7, 96 h
[7] = Drug uptake in Plasmodium falciparum 3D7 nucleus; type: ADME
[8] = molecular target: T1, Ribosyldihydronicotinamide dehydrogenase [quinone]; assay: Inhibition of human recombinant NQO2 using DCPIP as substrate and NRH as cofactor in absence of BSA
MCF7 [9] = assay: Cytotoxicity against human MCF7 cells at 10 uM after 96 hrs by MTT assay; type: functional, cell-based
[10] = molecular target: NAD(P)H dehydrogenase [quinone] 1 (Homo sapiens) (UniProt P15559); assay: Inhibition of human recombinant NQO1 using NADH as substrate at 10 uM measured for 1 min by spectrophotometry in absence of BSA
Chain of NAD(P)H dehydrogenase [quinone] 1 (Homo sapiens) (P15559 whole entry): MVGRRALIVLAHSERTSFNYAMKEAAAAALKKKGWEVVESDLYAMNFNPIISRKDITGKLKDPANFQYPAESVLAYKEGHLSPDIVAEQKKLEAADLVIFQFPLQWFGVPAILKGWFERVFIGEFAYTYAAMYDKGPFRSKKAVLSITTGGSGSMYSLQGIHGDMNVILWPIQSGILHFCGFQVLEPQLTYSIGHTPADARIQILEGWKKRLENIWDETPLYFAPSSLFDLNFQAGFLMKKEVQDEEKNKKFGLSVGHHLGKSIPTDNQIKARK

[11] = molecular target: NAD(P)H dehydrogenase [quinone] 1 (Homo sapiens) (UniProt P15559); assay: Inhibition of human recombinant NQO1 using NADH as substrate at 10 uM measured for 1 min by spectrophotometry in presence of BSA
T47D [12] = assay: Cytotoxicity against human T47D cells at 10 uM after 96 hrs by MTT assay; type: functional, cell-based
MDA-MB-231 [13] = assay: Cytotoxicity against human MDA-MB-231 cells at 10 uM after 96 hrs by MTT assay; type: functional, cell-based
MDA-MB-468 [14] = assay: Cytotoxicity against human MDA-MB-468 cells at 10 uM after 96 hrs by MTT assay; type: functional, cell-based

With `N=C(N)c1ccc(-c2ccc(-c3ccc([N+](=O)[O-])cc3)o2)cc1` the IC50 (MDA-MB-468 [1]) was 3.4 µM, the IC50 (T47D [2]) was 3.8 µM and the IC50 [3] was 0.0152 µM. For the same molecule, the IC50 (MCF7 [4]) was 3.2 µM, the IC50 (MDA-MB-231 [5]) was 3.1 µM and the IC50 [6] was 0.024 µM.
`N=C(N)c1ccc(-c2ccc(-c3ccccc3)[nH]2)cc1` showed an IC50 (MDA-MB-468 [1]) of 3.6 µM, an IC50 (T47D [2]) of 3.4 µM and an IC50 [3] of 0.332 µM. The IC50 (MCF7 [4]) was 3.2 µM, the IC50 (MDA-MB-231 [5]) was 3.8 µM and the IC50 [6] was 0.832 µM.
Molecule `Oc1ccc(/C=C/c2cc(O)cc(O)c2)cc1` [RESVERATROL] has an IC50 (MDA-MB-468 [1]) of 58 µM, an IC50 (T47D [2]) of 59 µM and an IC50 (MCF7 [4]) of 62 µM. It also gave an IC50 (MDA-MB-231 [5]) of 57 µM.
`CC(=O)O.COc1ccc(-c2ccc(-c3ccc(C(=N)N)cc3)o2)cc1` showed a ΔTm (Calf thymus DNA) of 2 °C, an IC50 (MDA-MB-468 [1]) of 2.2 µM and an IC50 (T47D [2]) of 3 µM. For the same molecule, the IC50 [3] was 0.107 µM, the IC50 (Plasmodium falciparum) was 0.139 µM and the IC50 (MCF7 [4]) was 2.8 µM. For the same molecule, the IC50 (MDA-MB-231 [5]) was 2.5 µM, the IC50 [6] was 0.141 µM and the Drug uptake [7] was “Not Active”.
Molecule `N=C(N)c1ccc(-c2ccc(-c3cccc([N+](=O)[O-])c3)o2)cc1` has an IC50 (MDA-MB-468 [1]) of 3.3 µM, an IC50 (T47D [2]) of 3.3 µM and an IC50 [3] of 0.0145 µM. For the same molecule, the IC50 (MCF7 [4]) was 3 µM, the IC50 (MDA-MB-231 [5]) was 2.9 µM and the IC50 [6] was 0.028 µM.
With `CC(=O)O.N=C(N)c1ccc(-c2ccc(-c3ccc(F)cc3)o2)cc1` the ΔTm (Calf thymus DNA) was 3.2 °C, the IC50 (MDA-MB-468 [1]) was 3.8 µM and the IC50 (T47D [2]) was 3.6 µM. It also gave an IC50 [3] of 0.505 µM, an IC50 (Plasmodium falciparum) of 0.0096 µM and an IC50 (MCF7 [4]) of 3.7 µM. The IC50 (MDA-MB-231 [5]) was 3.2 µM, the IC50 [6] was 0.836 µM and the Drug uptake [7] was “Not Active”.
With `CC(=O)O.CC(=O)O.N=C(N)c1ccc(-c2ccc(-c3ccc(C(=N)N)cc3)o2)cc1` the ΔTm (Calf thymus DNA) was 20 °C, the IC50 (MDA-MB-468 [1]) was 14 µM and the IC50 [8] was 0.63 µM. The IC50 (T47D [2]) was 12.8 µM, the IC50 [3] was 0.035 µM and the IC50 (MCF7 [4]) was 13.6 µM. For the same molecule, the IC50 (MDA-MB-231 [5]) was 12.5 µM, the IC50 [6] was 0.072 µM and the Drug uptake [7] was “Active”.
With `CCc1ccc(-c2ccc(-c3ccc(C(=N)N)cc3)o2)cc1` the IC50 (MDA-MB-468 [1]) was 3.3 µM, the IC50 (T47D [2]) was 3 µM and the IC50 [3] was 0.202 µM. The IC50 (MCF7 [4]) was 3.2 µM, the IC50 (MDA-MB-231 [5]) was 3.4 µM and the IC50 [6] was 0.312 µM.
For `COc1cccc2c1C(=O)c1c(O)c3c(c(O)c1C2=O)C[C@@](O)(C(=O)CO)C[C@@H]3O[C@H]1C[C@H](N)[C@H](O)[C@H](C)O1`, the ΔTm (Calf thymus DNA) was 20.5 °C.
In the case of `CC(C)(C)c1ccc(-c2ccc(-c3ccc(C(=N)N)cc3)o2)cc1`, the IC50 (MDA-MB-468 [1]) is reported as 3.8 µM, the IC50 (T47D [2]) is reported as 3.6 µM and the IC50 [3] is reported as 0.51 µM. It also gave an IC50 (MCF7 [4]) of 3.7 µM, an IC50 (MDA-MB-231 [5]) of 3.2 µM and an IC50 [6] of 0.712 µM.
With `N=C(N)c1ccc(-c2ccc(-c3ccc(Br)cc3)o2)cc1` the ΔTm (Calf thymus DNA) was 4.4 °C, the IC50 (MDA-MB-468 [1]) was 2.5 µM and the IC50 (T47D [2]) was 2.4 µM. It also gave an IC50 [3] of 0.027 µM, an IC50 (MCF7 [4]) of 2.6 µM and an IC50 (MDA-MB-231 [5]) of 2.7 µM. It also gave an IC50 [6] of 0.185 µM.
In the case of `N=C(N)c1ccc(-c2ccc(-c3ccccc3)o2)cc1`, the ΔTm (Calf thymus DNA) is reported as 1.9 °C, the IC50 (MDA-MB-468 [1]) is reported as 2.7 µM and the IC50 [8] is reported as 0.14 µM. The IC50 (T47D [2]) was 2.8 µM, the IC50 [3] was 0.068 µM and the IC50 (MCF7 [4]) was 2.4 µM. For the same molecule, the IC50 (MDA-MB-231 [5]) was 2 µM and the IC50 [6] was 0.139 µM.
Molecule `Cc1c(-c2ccc(C(=N)N)cc2)oc(-c2ccc(C(=N)N)cc2)c1C` has an IC50 [8] of 0.05 µM.
`CC(=O)O.Cc1ccc(-c2ccc(-c3ccc(C(=N)N)cc3)o2)cc1` gave a ΔTm (Calf thymus DNA) of 2.8 °C, an IC50 (MDA-MB-468 [1]) of 3.7 µM and an IC50 (T47D [2]) of 3.1 µM. It also gave an IC50 [3] of 0.072 µM, an IC50 (Plasmodium falciparum) of 0.0575 µM and an IC50 (MCF7 [4]) of 4.8 µM. The IC50 (MDA-MB-231 [5]) was 3.4 µM, the IC50 [6] was 0.11 µM and the Drug uptake [7] was “Not Active”.
For `N=C(N)c1ccc(-c2ccc(-c3cccc(F)c3)o2)cc1`, the ΔTm (Calf thymus DNA) was 3.2 °C, the IC50 (MDA-MB-468 [1]) was 2.4 µM and the IC50 (T47D [2]) was 2.8 µM. The IC50 [3] was 0.098 µM, the IC50 (MCF7 [4]) was 2.6 µM and the IC50 (MDA-MB-231 [5]) was 2 µM. The IC50 [6] was 0.111 µM.
For `Cn1c(-c2ccccc2)ccc1-c1ccc(C(=N)N)cc1`, the ΔTm (Calf thymus DNA) was 0.9 °C, the IC50 (MDA-MB-468 [1]) was 3.8 µM and the IC50 (T47D [2]) was 2.1 µM. It also gave an IC50 [3] of 0.41 µM, an IC50 (MCF7 [4]) of 2.7 µM and an IC50 (MDA-MB-231 [5]) of 2.6 µM. It also gave an IC50 [6] of 0.943 µM.
With `N=C(N)c1cccc(-c2ccc(-c3ccccc3)o2)c1` the Activity (MCF7 [9]) was “inactive”, the inhibition [10] was “inactive” and the inhibition [11] was “inactive”. For the same molecule, the Activity (T47D [12]) was “inactive”, the Activity (MDA-MB-231 [13]) was “inactive” and the Activity (MDA-MB-468 [14]) was “inactive”.
